Measurements as given in patent US4493830A, “Method for the treatment of idiopathic headache attacks, in particular migraine and cluster headache” (Istituto Farmacologico Serono of Rome, priority 1983, dated 1985).
Counter-ions that a name gives are not always drawn.

Tested on: cluster headache attacks
Assay: Double-blind randomized trial of treatment of cluster headache attacks in hospitalized patients
Type: in vivo
Procedure: Six consenting patients, suffering from cluster headache, were hospitalized. Two presented with a chronic state (more than one year) while the other four were in an attack stage at the moment of entering hospital. The patients received no other pharmaceuticals during the four days prior to commencing the study.
In each patient attacks lasted an average of 1-2 hours.
At the beginning of the attack, 10 minutes after the onset of pain, the patients received one of the following treatments:
500 mcg Somatostatin in 50 ml physiological solution, i.v.;
1 ml physiological solution i.m.;
50 ml physiological solution i.v.;
250 mcg Ergotamine Tartrate in 1 ml physiological solution i.m.
Duration of venous infusion was 20 minutes (50 drops per min.), and was started simultaneously with the i.m. injection. Treatments and patients were randomized and the trial was carried out in double blind.
In total, 9 attacks were treated for each patient, who received treatments (a) (b) or (c) 3 times; in this way, each treatment was used 18 times.
Pain intensity was ascertained every 10 minutes on a visible scale. Values were recorded on the ordinate against the time which was recorded on the abscissa.
3 parameters were used for statistical assessment; maximum intensity of pain expressed in arbitrary units; duration of pain expressed in minutes; area below the curve expressed in arbitrary units. During infusion with Somatostatin, blood pressure and pulse rates were recorded every 10 minutes for an hour.

[1] = versus physiological solution, Somatostatin 500 mcg i.v. infusion or Ergotamine Tartrate 250 mcg i.m.

Row | SMILES | Variations in blood pressure or pulse rates during infusion (500 mcg i.v. infusion, recorded every 10 minutes for an hour) | Incidence of side-effects as compared with Ergotamine (human, in vivo) | Reduction of pain duration as compared with placebo (Somatostatin 500 mcg i.v. infusion or Ergotamine Tartrate 250 mcg i.m.) | Maximum pain intensity (Somatostatin 500 mcg i.v. infusion or Ergotamine Tartrate 250 mcg i.m., physiological solution 7.1±0.3) | Area under the pain curve (Somatostatin 500 mcg i.v. infusion or Ergotamine Tartrate 250 mcg i.m., physiological solution 43.8±6.2) | Duration of pain (cluster headache patients, Somatostatin 500 mcg i.v. infusion over 20 min or Ergotamine Tartrate 250 mcg i.m., 18 attacks per treatment, physiological solution 93±10) | Reduction of maximum pain intensity [1] | Reduction of the pain area [1]
1 | C[C@H](N)C(=O)NCC(=O)N[C@H]1CSSC[C@@H](C(=O)O)NC(=O)[C@H](CO)NC(=O)[C@H]([C@@H](C)O)NC(=O)[C@H](Cc2ccccc2)NC(=O)[C@H]([C@@H](C)O)NC(=O)[C@H](CCCCN)NC(=O)[C@H](Cc2c[nH]c3ccccc23)NC(=O)[C@H](Cc2ccccc2)NC(=O)[C@H](Cc2ccccc2)NC(=O)[C@H](CC(N)=O)NC(=O)[C@H](CCCCN)NC1=O [Somatostatin] | nor were there significant variations | minor incidence of side-effects |  |  |  |  |  | 
2 | CN1C[C@H](C(=O)N[C@]2(C)O[C@@]3(O)[C@@H]4CCCN4C(=O)[C@H](Cc4ccccc4)N3C2=O)C=C2c3cccc4[nH]cc(c34)C[C@H]21 [Ergotamine, Ergotamine Tartrate] |  |  | 41% | 6.2±0.3 arbitrary units | 23.3±3.1 arbitrary units | 55 ± 8 min | 13% | 47%
